Read-outs that look alike come from different tables or passages of the source.
Biological target: T1, specific receptor on the membrane of human neutrophils (leukotriene B4) (Homo sapiens, UniProt Q15722)
T1 construct: Freshly-prepared buffy coat layers from two individuals were obtained from a local blood donor center; endogenous in cells; host or cells: intact human peripheral blood neutrophils from buffy coats of two donors
Experiment: Inhibition of Binding of ^3 H-LTB4 to Peripheral Human Neutrophils
Settings: for inhibition at 10 µM / inhibition at 1 µM / inhibition at 0.1 µM: read-out: LTB4 Binding Inhibition; for inhibition at 0.1 µM: drug concentration 10^-7 M
Protocol: Cells used in the assay were isolated by standard techniques of centrifugation on Ficoll-Hypaque, dextran 70 sedimentation and hypotonic lysis. The following procedure was used. Freshly-prepared buffy coat layers from two individuals were obtained from a local blood donor center. The cells were mixed and diluted to 484 ml with phosphate buffered saline containing heparin (10 units/ml) and heat-inactivated calf serum (5%). This was divided into 20 ml aliquots and the aliquots layered on top of Ficoll-Paque (12 ml). The material was then centrifuged at 500 g for 40 minutes at room temperature. The resulting upper layer of platelets and mononuclear cells was discarded. The lower layer containing erythrocytes and neutrophils was retained. Buffer was added (1 ml per 4 ml of lower layer) and the suspension mixed. For each milliliter of this mixture, 0.33 ml of 6% Macrodex was added. After stirring, the cells were allowed to sediment for 1 hour at 37° C. The resulting erythrocyte pellet was discarded and the neutrophil enriched supernatant fluid centrifuged at 500 g for 10 minutes at 4° C. Erythrocytes still present in this cell pellet were lysed by incubating the cells with 5-8 ml ice-cold distilled water for 30-45 seconds. Subsequently, the volume was made up to 50 ml by addition of ice-cold buffer and the cells resuspended. The suspension was then centrifuged at 300 g for 10 minutes at 4° C. The cells were finally resuspended at a cell density of 2×10^7 cells/ml in the assay buffer This buffer consisted of Hanks' balanced salt solution and 0.1% ovalbumin (pH 7.3).
The amount of bound ^3 H-LTB4 was then measured and compared with the amount bound in the absence of test compound. The assay was carried out in microcentrifuge tubes by adding first 10 μl test compound dissolved in DMSO, followed by adding 20 μl ^3 H-LTB4 diluted in assay buffer, and finally adding 500 μl of the cell suspension. At the end of the 10 minutes incubation, 300 μl of a mixture of dibutyl and dinonyl phthalate (7:2) were added and the tubes centrifuged for 2 minutes in a microcentrifuge. The radioactivity bound to the cell pellet was measured by scintillation spectroscopy. Appropriate corrections for nonspecific bonding of ^3 H-LTB4 were made.

[1] = drug concentration 10^-5 M, 0.1-0.2 nM ^3 H-LTB4, 10 minutes at 4° C
[2] = drug concentration 10^-6 M, 0.1-0.2 nM ^3 H-LTB4, 10 minutes at 4° C
[3] = 0.1-0.2 nM ^3 H-LTB4, 10 minutes at 4° C

T1 sequence (Q15722 whole entry): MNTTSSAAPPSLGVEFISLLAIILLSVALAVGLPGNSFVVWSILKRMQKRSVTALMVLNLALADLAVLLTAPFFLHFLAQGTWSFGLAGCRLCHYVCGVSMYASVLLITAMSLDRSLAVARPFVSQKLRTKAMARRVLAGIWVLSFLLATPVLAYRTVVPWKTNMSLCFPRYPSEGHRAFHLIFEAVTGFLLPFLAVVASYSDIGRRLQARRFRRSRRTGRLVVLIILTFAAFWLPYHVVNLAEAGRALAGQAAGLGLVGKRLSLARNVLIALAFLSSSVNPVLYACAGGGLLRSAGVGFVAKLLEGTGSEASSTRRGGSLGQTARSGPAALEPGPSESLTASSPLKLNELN

CCCCCCCCCCOc1ccc(C(=O)c2cccc(C(=O)OCC)c2)cc1Cc1nnn[nH]1 [Example 2, 3-[4-(Decyloxy)-3-(1H-tetrazol-5-ylmethyl)-benzoyl]benzoic acid, ethyl ester]
inhibition at 10 µM [1]: -11%
inhibition at 1 µM [2]: 14%

CCCCCCCCCCOc1ccc(C(=O)c2cccc(C(=O)OCC)c2)cc1CC(=O)OCC [Example 4, 2-(Decyloxy)-5-[3-(ethoxycarbonyl)benzoyl]benzeneacetic acid, ethyl ester]
inhibition at 10 µM [1]: -5%
inhibition at 1 µM [2]: -1%

CCCCCCCCCCOc1ccc(C(=O)c2cccc(C#N)c2)cc1CC#N [Example 12, 5-(3-Cyanobenzoyl)-2-(decyloxy)benzeneacetonitrile]
inhibition at 10 µM [1]: 3%
inhibition at 1 µM [2]: -1%

CCCCCCCCCCOc1ccc(C(=O)c2cccc(-c3nnn[nH]3)c2)cc1CC(=O)OCC [Example 15, 2-(Decyloxy)-5-[3-(1H-tetrazol-5-yl)benzoyl]benzeneacetic acid, ethyl ester]
inhibition at 10 µM [1]: -13%
inhibition at 1 µM [2]: 1%

CCCCCCCCCCOc1ccc(C(=O)c2cccc(-c3nnn[nH]3)c2)cc1Cc1nnn[nH]1 [Example 17, [4-(Decyloxy)-3-(1H-tetrazol-5-ylmethyl)phenyl][3-(1H-tetrazol-5-yl)phenyl]methanone]
inhibition at 10 µM [1]: 81%
inhibition at 1 µM [2]: 20%

CCCCCCCCCCCCCCOc1ccc(C(=O)c2cccc(C(=O)O)c2)cc1CC(=O)O [Example 26, 5-(3-Carboxybenzoyl)-2-(tetradecyloxy)benzeneacetic acid]
inhibition at 10 µM [1]: 63%
inhibition at 1 µM [2]: 10%

CCCCCCCCCCCCOc1ccc(C(=O)c2cccc(C(=O)O)c2)cc1CC(=O)O [Example 27, 5-(3-Carboxybenzoyl)-2-(dodecyloxy)benzeneacetic acid]
inhibition at 10 µM [1]: 80%
inhibition at 1 µM [2]: 18%

CCCCCCCCCCOc1ccc(C(=O)c2ccccc2C(=O)O)cc1CC(=O)OCC [Example 32, 5-(2-Carboxybenzoyl)-2-(decyloxy)benzeneacetic acid, ethyl ester]
inhibition at 10 µM [1]: 19%
inhibition at 1 µM [2]: -6%

CCCCCCCCCCOc1ccc(C(=O)c2ccccc2C(=O)O)cc1CC(=O)O [Example 35, 5-(2-Carboxybenzoyl)-2-(decyloxy)benzeneacetic acid]
LTB4 Binding Inhibition [1]: 53 percent inhibition
LTB4 Binding Inhibition [2]: 2 percent inhibition

CCCCCCCCCCOc1ccc(C(O)c2cccc(C(=O)OCC)c2)cc1CC(=O)OCC (stereo not drawn) [Example 40, 2-(Decyloxy)-5-{[3-(ethoxycarbonyl)phenyl]hxdroxymethyl}benzeneacetic acid, ethyl ester]
inhibition at 10 µM [1]: -14%
inhibition at 1 µM [2]: -10%

CCCCCCCCOc1ccc(C(O)c2cccc(C(=O)O)c2)cc1CC(=O)O (stereo not drawn) [Example 44, 5-[(3-Carboxyphenyl)hydroxymethyl]-2-(octyloxy)benzeneacetic acid]
inhibition at 10 µM [1]: 41%
inhibition at 1 µM [2]: 11%

CCCCCCCCCCOc1ccc(Cc2cccc(C(=O)O)c2)cc1CCC(=O)O [Example 50, 5-[(3-Carboxyphenyl)methyl]-2-(decyloxy)benzenepropanoic acid]
inhibition at 10 µM [1]: 88%
inhibition at 1 µM [2]: 41%

O=C(O)CCc1cc(C(=O)c2cccc(C(=O)O)c2)ccc1OCCCCC=Cc1ccccc1 [Example 76, 5-(3-Carboxybenzoyl)-2-[6-(phenyl-5-hexenyl)oxy]benzenepropanoic acid]
inhibition at 10 µM [1]: 96%
inhibition at 1 µM [2]: 91%
inhibition at 0.1 µM [3]: 36%

O=C(O)CCc1cc(C(=O)c2cccc(C(=O)O)c2)ccc1OCCCC[S+]([O-])c1ccccc1 (stereo not drawn) [Example 77, 5-(3-Carboxybenzoyl)-2-[4-(phenylsulfinyl)-butoxy]benzenepropanoic acid]
inhibition at 10 µM [1]: 22%
inhibition at 1 µM [2]: 8%

O=C(O)CCc1cc(C(=O)c2cccc(C(=O)O)c2)ccc1OCCCCS(=O)(=O)c1ccccc1 [Example 78, 5-(3-Carboxybenzoyl)-2-[4-(phenylsulfonyl)-butoxy]benzenepropanoic acid]
inhibition at 10 µM [1]: 18%
inhibition at 1 µM [2]: 4%

COc1ccc(CCCCCCOc2ccc(C(=O)c3cccc(C(=O)O)c3)cc2CCC(=O)O)cc1 [Example 80, 5-(3-Carboxybenzoyl)-2-{[6-(4-methoxyphenyl)-hexyl]oxy}benzenepropanoicacid]
inhibition at 10 µM [1]: 105%
inhibition at 1 µM [2]: 98%
inhibition at 0.1 µM [3]: 68%

O=C(O)CCc1cc(C(=O)c2cccc(C(=O)O)c2)ccc1OCCCCCCc1ccc(F)cc1 [Example 82, 5-(3-Carboxybenzoyl)-2-{[6-(4-fluorophenyl)hexyl]oxy}benzenepropanoic acid]
inhibition at 10 µM [1]: 104%
inhibition at 1 µM [2]: 81%
inhibition at 0.1 µM [3]: 22%

CSc1ccc(C=CCCCCOc2ccc(C(=O)c3cccc(C(=O)O)c3)cc2CCC(=O)O)cc1 [Example 83, 5-(3-Carboxybenzoyl)-2-{[6-(4-methylmercaptophenyl)-5-hexenyl]oxy}benzenepropanoic acid]
inhibition at 10 µM [1]: 103%
inhibition at 1 µM [2]: 79%
inhibition at 0.1 µM [3]: 18%

COc1cccc(C=CCCCCOc2ccc(C(=O)c3cccc(C(=O)O)c3)cc2CCC(=O)O)c1 [Example 84, 5-(3-Carboxybenzoyl)-2-{[6-(3-methoxyphenyl)-5-hexenyl]oxy}benzenepropanoic acid]
inhibition at 10 µM [1]: 99%
inhibition at 1 µM [2]: 91%
inhibition at 0.1 µM [3]: 49%

COc1ccccc1C=CCCCCOc1ccc(C(=O)c2cccc(C(=O)O)c2)cc1CCC(=O)O [Example 85, 5-(3-Carboxybenzoyl)-2-{[6-(2-methoxyphenyl)-5-hexenyl]oxy}benzenepropanoic acid]
inhibition at 10 µM [1]: 101%
inhibition at 0.1 µM [3]: 86%
inhibition at 1 µM: 97%

COc1cccc(CCCCCCOc2ccc(C(=O)c3cccc(C(=O)O)c3)cc2CCC(=O)O)c1 [Example 86, 5-(3-Carboxybenzoyl)-2-{[6-(3-methoxyphenyl)hexyl]oxy}benzenepropanoic acid]
inhibition at 10 µM [1]: 95%
inhibition at 1 µM [2]: 88%
inhibition at 0.1 µM [3]: 46%

COc1ccccc1CCCCCCOc1ccc(C(=O)c2cccc(C(=O)O)c2)cc1CCC(=O)O [Example 87, 5-(3-Carboxybenzoyl)-2-{[6-(2-methoxyphenyl)hexyl]oxy}benzenepropanoic acid]
inhibition at 1 µM [2]: 91%
inhibition at 0.1 µM [3]: 34%
inhibition at 10 µM: 100%

CS(=O)(=O)c1ccc(C=CCCCCOc2ccc(C(=O)c3cccc(C(=O)O)c3)cc2CCC(=O)O)cc1 [Example 91, 5-(3-Carboxybenzoyl)-2-{[6-(4-methylsulfonylphenyl)-5-hexenyl]oxy}benzenepropanoic acid]
inhibition at 10 µM [1]: 98%
inhibition at 1 µM [2]: 88%
inhibition at 0.1 µM [3]: 60%

CC(=O)c1ccc(CCCCCCOc2ccc(C(=O)c3cccc(C(=O)O)c3)cc2CCC(=O)O)cc1 [Example 101, 2-{[6-(4-Acetylphenyl)hexyl]oxy}-5-(3-carboxybenzoyl]benzenepropanoic acid]
inhibition at 1 µM [2]: 88%
inhibition at 0.1 µM [3]: 46%

O=C(O)CCc1cc(NC(=O)c2cccc(C(=O)O)c2)ccc1OCCCCCCc1ccccc1 [Example 102]
inhibition at 10 µM [1]: 98%
inhibition at 1 µM [2]: 72%
inhibition at 0.1 µM [3]: 18%

Reference: patent publication US5171882A, “Leukotriene antagonists” (Eli Lilly and Company, priority 1990, dated 1992)
